Reference: PMC10620772, “Design, synthesis, and biological evaluation of new pyrimidine-5-carbonitrile derivatives as novel anti-cancer, dual EGFR^WT/COX-2 inhibitors with docking studies” (RSC Advances, 2023)

What was measured:
Assay type in all cases: cell-based, human
CCRF-CEM = assay: NCI60 antitumor screening
HL-60(TB) = assay: NCI60 antitumor screening
MOLT-4 = assay: NCI60 antitumor screening
EKVX = assay: NCI60 antitumor screening
NCI-H23 = assay: NCI60 antitumor screening
NCI-H322M = assay: NCI60 antitumor screening
NCI-H460 = assay: NCI60 antitumor screening
COLO 205 = assay: NCI60 antitumor screening
HCC-2998 = assay: NCI60 antitumor screening
HCT-116 = assay: NCI60 antitumor screening
HCT-15 = assay: NCI60 antitumor screening
HT29 = assay: NCI60 antitumor screening
SF-268 = assay: NCI60 antitumor screening
SF-295 = assay: NCI60 antitumor screening
SF-539 = assay: NCI60 antitumor screening; conditions: for GI%: 10 μM one-dose
M14 = assay: NCI60 antitumor screening
SK-MEL-2 = assay: NCI60 antitumor screening
SK-MEL-28 = assay: NCI60 antitumor screening
SK-MEL-5 = assay: NCI60 antitumor screening
UACC-62 = assay: NCI60 antitumor screening
IGROV1 = assay: NCI60 antitumor screening
OVCAR-3 = assay: NCI60 antitumor screening
OVCAR-4 = assay: NCI60 antitumor screening; conditions: for GI%: 10 μM one-dose
OVCAR-5 = assay: NCI60 antitumor screening
NCI/ADR-RES = assay: NCI60 antitumor screening
A498 = assay: NCI60 antitumor screening
ACHN = assay: NCI60 antitumor screening
SN12C = assay: NCI60 antitumor screening
UO-31 = assay: NCI60 antitumor screening
PC-3 = assay: NCI60 antitumor screening
HS 578T = assay: NCI60 antitumor screening; conditions: for GI%: 10 μM one-dose
BT-549 = assay: NCI60 antitumor screening
T-47D = assay: NCI60 antitumor screening
NCI60 cell lines panel = assay: NCI60 antitumor screening, full panel
Outline: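 Percent growth inhibition (GI%) was recorded for each of the NCI60 lines, spanning leukaemia, lung, colon, CNS, melanoma, ovarian, renal, prostate and breast cancers, after exposure to compounds at one concentration, 10 μM.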

How did the GI% (CCRF-CEM; 10 μM one-dose) turn out when `Cc1ccc(CSc2nc(-c3ccc(F)cc3)c(C#N)c(N3CCOCC3)n2)cc1` [4d, 4-(4-Fluorophenyl)-2-((4-methylbenzyl)thio)-6-morpholinopyrimidine-5-carbonitrile] was run?
The GI% was “— (GI% < 10)”.

And the GI% (HL-60(TB); 10 μM one-dose)?
The GI% was “— (GI% < 10)”.

What about the GI% (MOLT-4; 10 μM one-dose) of the same compound?
The GI% was “— (GI% < 10)”.

And the GI% (EKVX; 10 μM one-dose)?
Its GI% is 13.10%.

What about the GI% (NCI-H23; 10 μM one-dose) of the same compound?
The GI% was “— (GI% < 10)”.

What about the GI% (NCI-H322M; 10 μM one-dose) of the same compound?
Its GI% is “— (GI% < 10)”.

And the GI% (NCI-H460; 10 μM one-dose)?
Its GI% is “— (GI% < 10)”.

What about the GI% (COLO 205; 10 μM one-dose) of the same compound?
The GI% was “— (GI% < 10)”.

What about the GI% (HCC-2998; 10 μM one-dose) of the same compound?
Its GI% is “— (GI% < 10)”.

What about the GI% (HCT-116; 10 μM one-dose) of the same compound?
The GI% was 19.81%.

What about the GI% (HCT-15; 10 μM one-dose) of the same compound?
The GI% was “— (GI% < 10)”.

What about the GI% (HT29; 10 μM one-dose) of the same compound?
Its GI% is “— (GI% < 10)”.

What about the GI% (SF-268; 10 μM one-dose) of the same compound?
Its GI% is 22.32%.

And the GI% (SF-295; 10 μM one-dose)?
Its GI% is 32.25%.

And the GI% (SF-539)?
Its GI% is 32.27%.

What about the GI% (SF-539; Table 1) of the same compound?
Its GI% is “— (GI value > 70%)”.

What about the GI% (M14; 10 μM one-dose) of the same compound?
Its GI% is “— (GI% < 10)”.

And the GI% (SK-MEL-2; 10 μM one-dose)?
The GI% was “— (GI% < 10)”.

And the GI% (SK-MEL-28; 10 μM one-dose)?
Its GI% is “— (GI% < 10)”.

What about the GI% (SK-MEL-5; 10 μM one-dose) of the same compound?
Its GI% is 10.99%.

What about the GI% (UACC-62; 10 μM one-dose) of the same compound?
The GI% was 22.83%.

And the GI% (IGROV1; 10 μM one-dose)?
Its GI% is “— (GI% < 10)”.

And the GI% (OVCAR-3; 10 μM one-dose)?
Its GI% is “— (GI% < 10)”.

And the GI% (OVCAR-4)?
Its GI% is 20.15%.

What about the GI% (OVCAR-4; Table 1) of the same compound?
The GI% was “— (GI value > 70%)”.

What about the GI% (OVCAR-5; 10 μM one-dose) of the same compound?
Its GI% is “— (GI% < 10)”.

What about the GI% (NCI/ADR-RES; 10 μM one-dose) of the same compound?
The GI% was “— (GI% < 10)”.

And the GI% (A498; 10 μM one-dose)?
Its GI% is “— (GI% < 10)”.

What about the GI% (ACHN; 10 μM one-dose) of the same compound?
The GI% was 37.30%.

What about the GI% (SN12C; 10 μM one-dose) of the same compound?
Its GI% is “— (GI% < 10)”.

What about the GI% (UO-31; 10 μM one-dose) of the same compound?
Its GI% is 10.06%.

What about the GI% (PC-3; 10 μM one-dose) of the same compound?
Its GI% is “— (GI% < 10)”.

And the GI% (HS 578T)?
The GI% was 48.85%.

What about the GI% (HS 578T; Table 1) of the same compound?
The GI% was “— (GI value > 70%)”.

And the GI% (BT-549; 10 μM one-dose)?
Its GI% is 11.94%.

What about the GI% (T-47D; 10 μM one-dose) of the same compound?
Its GI% is 12.46%.

And the “Mean GI%” value (NCI60 cell lines panel; 10 μM one-dose, mean over NCI60)?
Its value is 14.01%.

How did the inhibition at 10 µM (CCRF-CEM; Homo sapiens, 10 μM single dose, CCRF-CEM (leukaemia), read-out: growth inhibition percent (GI%)) turn out when `CN1CCN(c2nc(SCc3ccccc3)nc(-c3ccc(F)cc3)c2C#N)CC1` [4i, 2-(Benzylthio)-4-(4-fluorophenyl)-6-(4-methylpiperazin-1-yl) pyrimidine-5-carbonitrile] was run?
The inhibition at 10 µM was 37.9%.

And the inhibition at 10 µM (HL-60(TB); Homo sapiens, 10 μM single dose, HL-60(TB) (leukaemia), read-out: growth inhibition percent (GI%))?
Its inhibition at 10 µM is 36.5%.

What about the inhibition at 10 µM (MOLT-4; Homo sapiens, 10 μM single dose, MOLT-4 (leukaemia), read-out: growth inhibition percent (GI%)) of the same compound?
The inhibition at 10 µM was 49.8%.

And the inhibition at 10 µM (EKVX; Homo sapiens, 10 μM single dose, EKVX (non-small cell lung cancer), read-out: growth inhibition percent (GI%))?
Its inhibition at 10 µM is 20.2%.

And the inhibition at 10 µM (NCI-H23; Homo sapiens, 10 μM single dose, NCI-H23 (non-small cell lung cancer), read-out: growth inhibition percent (GI%))?
The inhibition at 10 µM was under 10%.

And the inhibition at 10 µM (NCI-H322M; Homo sapiens, 10 μM single dose, NCI-H322M (non-small cell lung cancer), read-out: growth inhibition percent (GI%))?
The inhibition at 10 µM was 16%.

And the inhibition at 10 µM (NCI-H460; Homo sapiens, 10 μM single dose, NCI-H460 (non-small cell lung cancer), read-out: growth inhibition percent (GI%))?
Its inhibition at 10 µM is 35.1%.

What about the inhibition at 10 µM (COLO 205; Homo sapiens, 10 μM single dose, COLO 205 (colon cancer), read-out: growth inhibition percent (GI%)) of the same compound?
Its inhibition at 10 µM is 13.6%.

And the inhibition at 10 µM (HCC-2998; Homo sapiens, 10 μM single dose, HCC-2998 (colon cancer), read-out: growth inhibition percent (GI%))?
Its inhibition at 10 µM is under 10%.

What about the inhibition at 10 µM (HCT-116; Homo sapiens, 10 μM single dose, HCT-116 (colon cancer), read-out: growth inhibition percent (GI%)) of the same compound?
Its inhibition at 10 µM is 45.8%.

And the inhibition at 10 µM (HCT-15; Homo sapiens, 10 μM single dose, HCT-15 (colon cancer), read-out: growth inhibition percent (GI%))?
The inhibition at 10 µM was 46.8%.

What about the inhibition at 10 µM (HT29; Homo sapiens, HT-29, 10 μM single dose, HT29 (colon cancer), read-out: growth inhibition percent (GI%)) of the same compound?
Its inhibition at 10 µM is 67%.

And the inhibition at 10 µM (SF-268; Homo sapiens, 10 μM single dose, SF-268 (CNS cancer), read-out: growth inhibition percent (GI%))?
The inhibition at 10 µM was 26.8%.

And the inhibition at 10 µM (SF-295; Homo sapiens, 10 μM single dose, SF-295 (CNS cancer), read-out: growth inhibition percent (GI%))?
The inhibition at 10 µM was 12.3%.

And the GI% (SF-539; Table 1)?
Its GI% is “— (GI value > 70%)”.

What about the inhibition at 10 µM (SF-539; Homo sapiens, 10 μM single dose, SF-539 (CNS cancer), read-out: growth inhibition percent (GI%)) of the same compound?
Its inhibition at 10 µM is 14.4%.

And the inhibition at 10 µM (M14; Homo sapiens, 10 μM single dose, M14 (melanoma), read-out: growth inhibition percent (GI%))?
The inhibition at 10 µM was 18.1%.

And the inhibition at 10 µM (SK-MEL-2; Homo sapiens, 10 μM single dose, SK-MEL-2 (melanoma), read-out: growth inhibition percent (GI%))?
The inhibition at 10 µM was under 10%.

And the inhibition at 10 µM (SK-MEL-28; Homo sapiens, 10 μM single dose, SK-MEL-28 (melanoma), read-out: growth inhibition percent (GI%))?
Its inhibition at 10 µM is under 10%.

And the inhibition at 10 µM (SK-MEL-5; Homo sapiens, 10 μM single dose, SK-MEL-5 (melanoma), read-out: growth inhibition percent (GI%))?
The inhibition at 10 µM was 33.6%.

And the inhibition at 10 µM (UACC-62; Homo sapiens, 10 μM single dose, UACC-62 (melanoma), read-out: growth inhibition percent (GI%))?
Its inhibition at 10 µM is 19.6%.

And the inhibition at 10 µM (IGROV1; Homo sapiens, IGROV-1, 10 μM single dose, IGROV1 (ovarian cancer), read-out: growth inhibition percent (GI%))?
The inhibition at 10 µM was under 10%.

What about the inhibition at 10 µM (OVCAR-3; Homo sapiens, 10 μM single dose, OVCAR-3 (ovarian cancer), read-out: growth inhibition percent (GI%)) of the same compound?
Its inhibition at 10 µM is 14.4%.

What about the GI% (OVCAR-4; Table 1) of the same compound?
The GI% was “— (GI value > 70%)”.

And the inhibition at 10 µM (OVCAR-4; Homo sapiens, 10 μM single dose, OVCAR-4 (ovarian cancer), read-out: growth inhibition percent (GI%))?
The inhibition at 10 µM was 22.5%.

And the inhibition at 10 µM (OVCAR-5; Homo sapiens, 10 μM single dose, OVCAR-5 (ovarian cancer), read-out: growth inhibition percent (GI%))?
Its inhibition at 10 µM is under 10%.

What about the inhibition at 10 µM (NCI/ADR-RES; Homo sapiens, 10 μM single dose, NCI/ADR-RES (ovarian cancer), read-out: growth inhibition percent (GI%)) of the same compound?
Its inhibition at 10 µM is under 10%.

What about the inhibition at 10 µM (A498; Homo sapiens, 10 μM single dose, A498 (renal cancer), read-out: growth inhibition percent (GI%)) of the same compound?
Its inhibition at 10 µM is 12.5%.

What about the inhibition at 10 µM (ACHN; Homo sapiens, 10 μM single dose, ACHN (renal cancer), read-out: growth inhibition percent (GI%)) of the same compound?
Its inhibition at 10 µM is 14.8%.

And the inhibition at 10 µM (SN12C; Homo sapiens, 10 μM single dose, SN12C (renal cancer), read-out: growth inhibition percent (GI%))?
The inhibition at 10 µM was 12.6%.

And the inhibition at 10 µM (UO-31; Homo sapiens, 10 μM single dose, UO-31 (renal cancer), read-out: growth inhibition percent (GI%))?
Its inhibition at 10 µM is 36%.

What about the inhibition at 10 µM (PC-3; Homo sapiens, 10 μM single dose, PC-3 (prostate cancer), read-out: growth inhibition percent (GI%)) of the same compound?
The inhibition at 10 µM was 31.9%.

And the GI% (HS 578T; Table 1)?
Its GI% is “— (GI value > 70%)”.

And the inhibition at 10 µM (HS 578T; Homo sapiens, 10 μM single dose, HS 578T (breast cancer), read-out: growth inhibition percent (GI%))?
Its inhibition at 10 µM is 32%.

And the inhibition at 10 µM (BT-549; Homo sapiens, 10 μM single dose, BT-549 (breast cancer), read-out: growth inhibition percent (GI%))?
Its inhibition at 10 µM is under 10%.

And the inhibition at 10 µM (T-47D; Homo sapiens, T47D, 10 μM single dose, T-47D (breast cancer), read-out: growth inhibition percent (GI%))?
The inhibition at 10 µM was 42.5%.

What about the inhibition at 10 µM (NCI60 cell lines panel; Homo sapiens, 10 μM single dose, mean over NCI60 cell lines, read-out: Mean growth inhibition percent (GI%)) of the same compound?
Its inhibition at 10 µM is 24.3%.
